{"source": "ChEMBL document CHEMBL4251633", "about": "“Design, synthesis, biological evaluation and cocrystal structures with tubulin of chiral β-lactam bridged combretastatin A-4 analogues as potent antitumor agents” (Eur J Med Chem, 2018)", "key": {"HeLa [1]": {"tested_on": "HeLa", "test": "Induction of apoptosis in human HeLa cells assessed as late apoptotic cells at 100 nM after 48 hrs by Annexin V-FITC/propidium iodide staining based flow cytometry (reference value: 2%)", "format": "functional"}, "[2]": {"test": "Acute toxicity in ICR mouse assessed as survival rate at 100 mg/kg, ip measured on day 14 (reference value: 100%)", "format": "organism-based", "conditions": "in vivo"}, "HeLa [3]": {"tested_on": "HeLa", "test": "Induction of apoptosis in human HeLa cells assessed as late apoptotic cells at 50 nM after 48 hrs by Annexin V-FITC/propidium iodide staining based flow cytometry (reference value: 2%)", "format": "functional"}, "HeLa [4]": {"tested_on": "HeLa", "test": "Upregulation of Cyclin-B1 protein expression in human HeLa cells at 50 to 200 nM by Western blot analysis", "format": "functional, cell-based"}, "Mus musculus [5]": {"tested_on": "Mus musculus", "test": "Acute toxicity in ICR mouse assessed as death at 100 to 125 mg/kg, ip measured after 1 day", "format": "organism-based", "conditions": "in vivo, 24 h"}, "MDA-MB-231": {"tested_on": "MDA-MB-231", "test": "Antiproliferative activity against human MDA-MB-231 cells after 48 hrs by MTT assay", "format": "functional, cell-based", "conditions": "MDA-MB-231, 48 h"}, "HUVEC": {"tested_on": "HUVEC", "test": "Antiangiogenic activity against HUVEC assessed as disruption of capillary-like tube formation at 50 nM after 12 hrs by inverted microscopic method", "format": "functional, cell-based", "conditions": "Homo sapiens"}, "HeLa [6]": {"tested_on": "HeLa", "test": "Upregulation of cleaved PARP1 protein expression in human HeLa cells after 48 hrs by Western blot analysis", "format": "functional, cell-based"}, "[7]": {"test": "Acute toxicity in ICR mouse assessed as survival rate at 275 mg/kg, ip measured on day 14 (reference value: 100%)", "format": "organism-based", "conditions": "in vivo"}, "HeLa [8]": {"tested_on": "HeLa", "test": "Induction of apoptosis in human HeLa cells assessed as late apoptotic cells at 200 nM after 48 hrs by Annexin V-FITC/propidium iodide staining based flow cytometry (reference value: 2%)", "format": "functional"}, "Mus musculus [9]": {"tested_on": "Mus musculus", "test": "Toxicity in Balb/c nude mouse xenografted with human A2780 cells assessed as abnormality in spleen at 8 mg/kg, ip once in every 2 days measured after 14 days by H and E staining based assay", "format": "organism-based", "conditions": "in vivo, 336 h"}, "HeLa [10]": {"tested_on": "HeLa", "test": "Upregulation of p53 protein expression in human HeLa cells after 48 hrs by Western blot analysis", "format": "functional, cell-based"}}, "note": "Active and inactive are the calls of the source. No cut-off for these calls is given here.", "data": [{"smiles": "COc1ccc([C@H]2[C@H](C)C(=O)N2c2cc(OC)c(OC)c(OC)c2)cc1O", "values": [{"measurement": "Activity", "setting": "HeLa [1]", "result": 29.9, "unit": "%"}, {"measurement": "survival at 14 day", "setting": "[2]", "result": 90, "unit": "%"}, {"measurement": "Activity", "setting": "HeLa [3]", "result": 23.4, "unit": "%"}, {"measurement": "Activity", "setting": "HeLa [4]", "result": "Active"}, {"measurement": "Activity", "setting": "Mus musculus [5]", "result": "Non-Toxic"}, {"measurement": "IC50", "setting": "MDA-MB-231", "result": 3, "unit": "nM"}, {"measurement": "Activity", "setting": "HUVEC", "result": "Active"}, {"measurement": "Activity", "setting": "HeLa [6]", "result": "Dose-dependent effect"}, {"measurement": "survival at 14 day", "setting": "[7]", "result": 10, "unit": "%"}, {"measurement": "Activity", "setting": "HeLa [8]", "result": 33.8, "unit": "%"}, {"measurement": "Activity", "setting": "Mus musculus [9]", "result": "Non-Toxic"}, {"measurement": "Activity", "setting": "HeLa [10]", "result": "Dose-dependent effect"}]}]}
